Test results published in patent US5914235A (Eli Lilly and Company, priority 1997, dated 1999).
“And” between values parts separate entries of the source, which are not always exact repeats. Identical values can stand only once. Like-named read-outs stand apart in the source and are kept apart here.

How the values were obtained:
[1] = molecular target: T1, [^3 H]BFI binding sites (I2 binding site) (Homo sapiens, UniProt P27338); test: Ligand competition for [^3 H]BFI binding in human cortex; details: for Affinity in competition for [^3 H]BFI binding: human brain
T1 construct: Frozen sections of human cortex (Brodman's areas 8,9,10), human medulla; from tissue; host or cells: P2 membranes of human cortex (Brodmann areas 8, 9, 10) and human medulla (NRL)
T1 sequence (P27338 2-520 limits assumed): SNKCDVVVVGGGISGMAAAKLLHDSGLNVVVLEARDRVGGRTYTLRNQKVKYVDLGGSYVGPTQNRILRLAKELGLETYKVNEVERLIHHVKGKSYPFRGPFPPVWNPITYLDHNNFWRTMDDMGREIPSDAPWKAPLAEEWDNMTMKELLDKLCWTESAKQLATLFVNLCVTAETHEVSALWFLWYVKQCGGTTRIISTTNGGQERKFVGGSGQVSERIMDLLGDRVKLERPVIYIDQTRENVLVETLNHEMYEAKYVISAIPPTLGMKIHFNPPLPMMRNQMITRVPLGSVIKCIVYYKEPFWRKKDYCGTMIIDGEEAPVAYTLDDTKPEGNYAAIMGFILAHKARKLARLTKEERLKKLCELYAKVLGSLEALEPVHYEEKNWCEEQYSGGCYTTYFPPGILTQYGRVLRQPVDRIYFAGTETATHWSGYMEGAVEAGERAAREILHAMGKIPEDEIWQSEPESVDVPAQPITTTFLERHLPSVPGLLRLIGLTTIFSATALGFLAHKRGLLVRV
Procedure: (§1) Membrane fractions were isolated at 4° C. using differential centrifugation as follows: Homogenates were centrifuged at 500×g to remove nuclei and cell debris followed by 45,000×g to obtain the P2 membrane fraction. The P2 pellet was washed twice with 50 mM Tris-HCl buffer. Between washes the pellet resuspension was incubated for 30 min at 25° C. to allow dissociation of endogenous ligands from their receptors. The final pellet was resuspended in 50 mM Tris-HCl, pH 7.5, and stored at -70° C. until used.
(§2) Binding data were calculated as fmol bound ligand/mg protein. Protein was determined by the Lowry method. Binding constants were calculated by nonlinear curve fitting (Lundon Software) and the fit to a one or two site model was tested using two-way ANOVA. Relative MAO activity was calculated as CPM/mg protein/min or moles/mg protein/min.

[2] = molecular target: [^3 H]BFI binding sites (I2 binding site); test: as above; details: human cortex, 8 nM [^3 H]BFI, two-site fit
Procedure: as §1, §2

MAO = assay type: biochemical, human
Procedure: MAO activity was measured with [^14 C]tyramine as substrate using a modification of the method by Yu [P. H. YU, Neuromethods, Neurotransmitter Enzymes, A. A. Boulton, G. B. Baker and P. H. Yu, 235-272, Humana Press, Clifton, N.J. (1986))]. Membranes were incubated with [^14 C]tyramine (0.5 mM) at 21° C., pH 7.4 for 40 min. Enzyme activity was stopped by lowering pH to 1.0 with 2 M HCl. The radiolabeled products of MAO degradation (p-hydroxyphenylacetic acid and p-hydroxymandelic acid) were then extracted into toluene ethyl acetate by vortexing for 15 min and aliquots of the organic phase counted. Extraction was enhanced by the addition of a 1 mg/ml carrier concentration of both products and saturating concentration of NaCl.
as §2
Data are mean±SEM of 3 experiments. […] The data is depicted in FIG. 5.
Data are expressed as percent of maximum binding or MAO activity and represent the mean±SEM of 3 experiments. […] The data is depicted in FIG. 6.

I2 sites = details: read-out: KD of [^3 H]BFI binding; rabbit cortex, previously reported; cited from earlier work
rat liver MAO A = details: cited from earlier work
rat liver MAO B = details: cited from earlier work

Structure (SMILES): Clc1cccc(Cl)c1N=C1NCCN1 [clonidine]
- Affinity in competition for [^3 H]BFI binding [1]: low affinity
- Ki ([2]; read-out: Ki for competition of [^3 H]BFI binding, two-site model, first (high-affinity) value): 73.4 ± 24.6 nM
- Ki ([2]; read-out: Ki for competition of [^3 H]BFI binding, two-site model, second (low-affinity) value): 86300 ± 11100 nM

Structure (SMILES): N[C@@H]1C[C@H]1c1ccccc1 (relative stereo) [TCP, Tranylcypromine]
- Inhibition of MAO activity (MAO; 1 μM TCP preincubation (maximal potentiation of binding)): 80%
- TCP concentration of maximal inhibition of MAO activity (MAO; 40 min preincubation, washed): 3 µM
- Maximal inhibition of MAO activity (MAO; TCP concentrations >3 μM): 95%
- Potentiation of BFI binding in guinea pig tissues by TCP (BFI binding sites): not seen

Structure (SMILES): c1ccc2oc(C3=NCCN3)cc2c1 [[^3 H]BFI, 2-(2-benzofuranyl)-2-imidazoline]
- Kd (I2 sites): 2.7 nM

Structure (SMILES): COC1(C2=NCCN2)COc2ccccc2O1 (stereo not drawn) [RX821002]
- Ki [1]: 9400 ± 1800 nM
- Affinity in competition for [^3 H]BFI binding [1]: low affinity

Structure (SMILES): c1ccc2c(c1)OCC(C1=NCCN1)O2 (stereo not drawn) [idazoxan]
- Ki [1]: 80.4 ± 17 nM
- Inhibition of rat liver MAO A (rat liver MAO A): not

Structure (SMILES): c1ccc2oc(C3=NCCN3)cc2c1 [BFI, 2-(2-benzofuranyl)-2-imidazoline]
- Inhibition of rat liver MAO A (rat liver MAO A): inhibits
- Inhibition of rat liver MAO B (rat liver MAO B): inhibits

Structure (SMILES): N=C(N)NC(=O)c1nc(Cl)c(N)nc1N [amiloride]
- Affinity in competition for [^3 H]BFI binding [1]: low affinity

Structure (SMILES): C#CCN(C)Cc1ccccc1 [pargyline]
- Inhibition of basal MAO activity (MAO; preincubation with 10 μM pargyline, all durations (10, 30, 60 min)): > 90% and 90%

Structure (SMILES): c1ccc(C2CC2)c(OCC2=NCCN2)c1 [cirazoline]
- Ki [1]: 13 ± 4.5 nM
- Affinity in competition for [^3 H]BFI binding [1]: high affinity

Structure (SMILES): COc1nc(C)nc(Cl)c1N=C1NCCN1 [moxonidine]
- Affinity in competition for [^3 H]BFI binding [1]: low affinity

Structure (SMILES): N=C(N)N/N=C/c1c(Cl)cccc1Cl [guanabenz]
- Ki [1]: 72.5 ± 24 nM
- Affinity in competition for [^3 H]BFI binding [1]: high affinity
